Assays:
[1] = Solubility of the hardly water-soluble substance in PBS (statement); conditions: PBS without solubilizing agent
[2] = Solubilization test of cholecalciferol (vitamin D3): turbidity (absorbance at 450 nm) of a mixture of solubilizing solution and cholecalciferol solution; format: physicochemical; conditions: for turbidity: 100 μL + 1 μL cholecalciferol 20 mg/mL in ethanol, absorbance 450 nm minus PBS alone; for turbidity ratio to PBS: cholecalciferol, less than 10% = dissolved
Method: Cholecalciferol (vitamin D3) was dissolved in ethanol at a concentration of 20 mg/mL to prepare a cholecalciferol solution. […] The cholecalciferol solution was dispensed at 1 uL/well. The mixture in each well was stirred for 1 min, and the absorbance of the mixture at a wavelength of 450 nm was measured. In addition, the absorbance of PBS alone not containing cholecalciferol at a wavelength of 450 nm was measured. The difference between the absorbance of the mixture of the solubilizing solution and the cholecalciferol solution at a wavelength of 450 nm and the absorbance of PBS alone at a wavelength of 450 nm was taken as “turbidity of a mixture of a solubilizing solution and a cholecalciferol solution”. A smaller turbidity indicates a larger amount of a hardly water-soluble substance dissolved therein.
In the same manner as in the above except that PBS was used instead of the solubilizing solution, “turbidity of a mixture of PBS and a cholecalciferol solution” (that is, difference between the absorbance of a mixture of PBS and a cholecalciferol solution at a wavelength of 450 nm and the absorbance of PBS alone at a wavelength of 450 nm) was calculated.
(§1) As an index for evaluation of whether or not cholecalciferol is dissolved, turbidity ratio to PBS was calculated by the following formula: • turbidity ratio to PBS (%)=100×(turbidity of a mixture of solubilizing solution and cholecalciferol solution)/(turbidity of a mixture of PBS and cholecalciferol solution). When the turbidity ratio to PBS was less than 10%, cholecalciferol was evaluated to have been dissolved.

[3] = Solubilization test of DL-α-tocopherol (vitamin E): turbidity at 450 nm; format: physicochemical; conditions: for turbidity: DL-α-tocopherol 20 mg/mL in ethanol, 1 μL/well, absorbance 450 nm minus PBS alone; for turbidity ratio to PBS: DL-α-tocopherol, less than 10% = dissolved
Method: DL-α-tocopherol (vitamin E) was dissolved in ethanol at a concentration of 20 mg/mL to prepare a DL-α-tocopherol solution.
In the same manner as above except that PBS was used instead of the solubilizing solution, “turbidity of a mixture of PBS and a DL-α-tocopherol solution” (that is, difference between the absorbance of a mixture of PBS and a DL-α-tocopherol solution at a wavelength of 450 nm and the absorbance of PBS alone at a wavelength of 450 nm) was calculated.
As an index for evaluation of whether or not DL-α-tocopherol is dissolved, turbidity ratio to PBS was calculated by the following formula: turbidity ratio to PBS (%)=100×(turbidity of a mixture of solubilizing solution and DL-α-tocopherol solution)/(turbidity of a mixture of PBS and DL-x-tocopherol solution). When the turbidity ratio to PBS was less than 10%, DL-α-tocopherol was evaluated to have been dissolved.

[4] = Solubilization test of lauric acid: turbidity at 450 nm; format: physicochemical; conditions: for turbidity: solubilizing agent 5.000% by mass in PBS, lauric acid 100 mg/mL in ethanol, 3 μL/well, absorbance 450 nm minus PBS alone; for turbidity ratio to PBS: solubilizing agent 5.000% by mass, lauric acid, less than 10% = dissolved
Method: Lauric acid was dissolved in ethanol at a concentration of 100 mg/mL to prepare a lauric acid solution.
In the same manner as above except that PBS was used instead of the solubilizing solution, “turbidity of a mixture of PBS and a lauric acid solution” (that is, difference between the absorbance of a mixture of PBS and a lauric acid solution at a wavelength of 450 nm and the absorbance of PBS alone at a wavelength of 450 nm) was calculated.
as §1, with “lauric acid” for “cholecalciferol”

[5] = Solubilization test of myristic acid: turbidity at 450 nm; format: physicochemical; conditions: for turbidity: solubilizing agent 5.000% by mass in PBS, myristic acid 100 mg/mL in ethanol, 3 μL/well, absorbance 450 nm minus PBS alone; for turbidity ratio to PBS: solubilizing agent 5.000% by mass, myristic acid, less than 10% = dissolved
Method: Myristic acid was dissolved in ethanol at a concentration of 100 mg/mL to prepare a myristic acid solution.
In the same manner as above except that PBS was used instead of the solubilizing solution, “turbidity of a mixture of PBS and a myristic acid solution” (that is, difference between the absorbance of a mixture of PBS and a myristic acid solution at a wavelength of 450 nm and the absorbance of PBS alone at a wavelength of 450 nm) was calculated.
as §1, with “myristic acid” for “cholecalciferol”

[6] = Solubilization test of hydrocortisone: turbidity at 450 nm; format: physicochemical; conditions: for turbidity: solubilizing agent 0.050% by mass in PBS, hydrocortisone 20 mg/mL in ethanol, 125 μL/well, absorbance 450 nm minus PBS alone; for turbidity ratio to PBS: solubilizing agent 0.050% by mass, hydrocortisone, less than 10% = dissolved
Method: Hydrocortisone was dissolved in ethanol at a concentration of 20 mg/mL to prepare a hydrocortisone solution.
In the same manner as above except that PBS was used instead of the solubilizing solution, “turbidity of a mixture of PBS and a hydrocortisone solution” (that is, difference between the absorbance of a mixture of PBS and a hydrocortisone solution at a wavelength of 450 nm and the absorbance of PBS alone at a wavelength of 450 nm) was measured.

[7] = solubilizing agent 0.025% by mass in PBS
[8] = solubilizing agent 0.025% by mass
[9] = solubilizing agent 0.050% by mass in PBS
[10] = solubilizing agent 0.050% by mass

Row | Compound | solubility in PBS [1] | turbidity [2, 7] | turbidity ratio to PBS [2, 8] [%] | turbidity [2, 9] | turbidity ratio to PBS [2, 10] [%] | turbidity [3, 9] | turbidity ratio to PBS [3, 10] [%] | other results
1 | Cc1c(C)c2c(c(C)c1O)CCC(C)(CCCC(C)CCCC(C)CCCC(C)C)O2 (racemic) [DL-α-tocopherol, reference compound] | insoluble |  |  |  |  |  |  | 
2 | CCCCCCCCSCC(C)C(=O)OCCOP(=O)([O-])OCC[N+](C)(C)C (centres unmarked) [Synthetic Example 1, 2-[3-(octylsulfanyl)-2-methylpropionyloxy]ethyl-2-(trimethylammonio)ethyl phosphate] |  | 0.0229 | 9 | 0.0132 | 5 | 0.0000 | 0 | turbidity [3, 7]: 0.0150; turbidity ratio to PBS [3, 8]: 9%; turbidity [4]: 0.0000; turbidity ratio to PBS [4]: 0%; turbidity ratio to PBS ([4]; listed as Example 4-1): less than 10%; turbidity [5]: 0.0231; turbidity ratio to PBS [5]: 5%; turbidity ratio to PBS ([5]; listed as Example 5-1): less than 10%
3 | CCCCCCCCCCCCSCC(C)C(=O)OCCOP(=O)([O-])OCC[N+](C)(C)C (centres unmarked) [Synthetic Example 2, 2-[3-(dodecylsulfanyl)-2-methylpropionyloxy]ethyl-2-(trimethylammonio)ethyl phosphate] |  | 0.0080 | 3 | 0.0009 | 0 | 0.0153 | 9 | 
4 | CCCCCCCCCCCCCCCCSCC(C)C(=O)OCCOP(=O)([O-])OCC[N+](C)(C)C (centres unmarked) [Synthetic Example 3, 2-[3-(hexadecylsulfanyl)-2-methylpropionyloxy]ethyl-2-(trimethylammonio)ethyl phosphate] |  | 0.0231 | 9 | 0.0139 | 6 |  |  | turbidity [6]: 0.0015; turbidity ratio to PBS [6]: 3%; turbidity ratio to PBS ([6]; listed as Example 3-3): less than 10%
5 | Triton X-100 [reference compound] |  |  |  | 0.0331 | 13 | 0.2573 | 147 | turbidity ratio to PBS ([3]; solubilizing agent 0.050% by mass, listed as Comparative Example 2-2-1): not less than 10%; turbidity [6]: 0.0910; turbidity ratio to PBS [6]: 205%; turbidity [4]: 0.0002; turbidity ratio to PBS [4]: 0%; turbidity [5]: 0.0601; turbidity ratio to PBS [5]: 14%

Continued, in another order:

Row | solubility in PBS [1] | Compound | turbidity [2, 7] | turbidity ratio to PBS [2, 8] [%] | turbidity [2, 9] | turbidity ratio to PBS [2, 10] [%] | turbidity [3, 9] | turbidity ratio to PBS [3, 10] [%] | other results
6 | insoluble | CCCCCCCCCCCC(=O)O [Lauric acid] |  |  |  |  |  |  | 
7 | insoluble | CCCCCCCCCCCCCC(=O)O [Myristic acid] |  |  |  |  |  |  | 

— patent US12559681B2, “Solubilizing agent and solubilizing solution” (NOF CORPORATION, priority 2020, dated 2026)
